Source: article PMC9592989, “Determination of (-)-epigallocatechin-3-gallate octaacetate and its metabolites in plasma of rats for pharmacokinetic study by ultra-performance-liquid-chromatography coupled to quadrupole-time-of-flight-mass-spectrometry” (Frontiers in Pharmacology, 2022)
Where two headings read alike, the source gives them in different places.

Assays:
[1] = Pharmacokinetic study in SD rats after intragastric administration of pro-EGCG, plasma by UPLC-Qtof-MS; type: in vivo, Sprague Dawley (SD) rats
Description: Fourteen to 16-weeks old female Sprague Dawley (SD) rats at reproductive age and of approximately 250 g were grouped in different cages in an air-conditioned room (22 ± 2°C) with a 12-h controlled lighting cycle. The SD rats were fed with standard chow and given free access to water. They were acclimatized for 1 week before the experiment. The study was approved by the Animal Experimentation Ethics Committee of the Chinese University of Hong Kong and was performed according to institutional guidelines. For validation studies, the rats were fasted overnight and then anesthetized by inhaling isoflurane (Baxter, IL, United States) for 15 min. Blank blood samples, approximately 10 mL, were withdrawn by cardiac puncture after experiments and before sacrifice.
Venous blood drawn from the SD rats was stored in an EDTA tube in an […] ice bath for not more than 10 min and centrifuged at 1780 × g and […] for 10 min. Plasma was aliquoted in 50 μL, mixed with 6 µL formic acid, and either immediately processed or stored at -80°C.
The extraction procedure was modified from our previous study ([Chu et al., 2014]). A plasma aliquot was spiked with 2.5 µL of 100 μg/mL pro-EGCG internal standard and mixed with 300 µL of isopropanol and 3 µL of formic acid. After vortexing for 2 min and sonicating for 2 min, 1 mL of MTBE and 150 µL magnesium chloride 0.043% solution were added. The mixture was again vortexed for 2 min and sonicated for 2 min. After settling, the mixture was centrifuged at 2,624 × g and 4°C for 10 min. The supernatant was pipetted into a glass tube by a glass Pasteur pipette and avoided touching the protein layer. The remaining aqueous layer was re-extracted by isopropanol and MTBE as described above. The supernatant was mixed with the previous extract and purged to dryness by nitrogen. The dried residues were dissolved in 100 µL methanol, sonicated for 30 s, vortexed for 2 min, and centrifuged at 3,634 × g at 4°C for 15 min. The supernatant was transferred to an HPLC vial for LCMS analysis. Methanol can completely dissolve pro-EGCG and precipitate protein matrix from the residues.
Plasma extract was analyzed by Agilent 6,540 Liquid chromatography-electrospray ionization quadrupole-TOF Mass Spectrometer. The extract, 8 μL, was separated by Waters Cortex UPLC C18 1.6 µm × 2.1 × 150 mm column (Waters, Milford, MA). Mobile phase A was 0.1 mM ammonia solution/acetonitrile/methanol/formic acid [80:15:5:0.2 (v/v/v/v)] and mobile phase B acetonitrile/methanol/0.1 mM ammonia solution/formic acid [92.5:5:2.5:0.2 (v/v/v/v)]. The column temperature was 40°C and the flow rate was 0.4 mL/min. The binary elusion program: 20% B, 0–2 min; 20%–60% B, 2–10 min; 60%–100% B, 10–11 min; 100% B, 11–18 min; 100%–20% B, 18–19 min; 20% B, 19–24 min. Positive electrospray ionization was used with capillary voltage (VCap) at 4500V, nozzle voltage at 1000 V, the gas temperature at 300°C, drying gas at 8 L/min, nebulizer pressure at 40 psi, sheath gas temperature at 300°C, and sheath gas flow at 11 L/min. The acquisition range was 100–1,000 m/z. The exact mass method was used for quantification at the range of 812.2043 ± 0.06 m/z for pro-EGCG ammonium adduct [M + NH4]^+ and 803.2039 ± 0.06 m/z for internal standard pro-EGCG-1–13C8 hydrogen adduct [M + H]^+. The mass was locked by continuous infusion of calibration standards with lock mass calibrated at 922.0 m/z.
For analysis of the metabolites, the predicted masses of pro-EGCG metabolites as calculated from de-acetylation, glucuronidation, sulphation, and methylation were scanned from the chromatogram of the first-hour plasma samples after intragastric administration of pro-EGCG. For a particular metabolite, the predicted target molecular mass of the metabolite was submitted for MS/MS analysis within ± 1 min around the retention time of the peak. The chromatography and mass spectrum conditions were the same as above. The collision energy was set for […] and the daughter ion scan ranged from 100–1,000 Da. […]

[2] = Stability of pro-EGCG in rat plasma (room temperature; esterase inhibitors; formic acid); type: in vitro ADME; details: for stability of pro-EGCG in plasma at room temperature: 50 μg/mL pro-EGCG spiked in rat plasma, 0-60 min
Description: The stability of pro-EGCG in plasma at room temperature was assessed by spiking 50.0 μg/mL pro-EGCG into three sets of 50 µL plasma samples. Each plasma sample was spiked with 5.0 μg/mL pro-EGCG internal standard at time points 0, 3, 5, 10, 20, 30, and 60 min before snap-frozen by liquid nitrogen. The samples were processed as described above and analyzed by UPLC‐Qtof-MS.
We also evaluated the stabilizing effect of different esterase inhibitors. The inhibitors, 4-(2-aminoethyl-)benzenesulponylfluoride HCL (penfabloc), bis-nitophenyl phosphate (BNPP), N-α-tosyl-L-lysine chloromethylketone HCL (TLCK), and dichlorvos, at plasma level of 30 mM; a mixture of sodium fluoride–potassium oxalate (NaF-KO) at plasma level of 10.0 mg/mL and 8.0 mg/mL; and 6 µL formic acid in 50 µL fresh rat plasma sample were used. Subsequently, pro-EGCG was spiked into the blank rat plasma at 5.0 μg/mL in an ice bath for 10 min. An internal standard, 5.0 μg/mL, was added to the plasma samples and snap-frozen by liquid nitrogen at the 10th minute. Three sets of samples were tested. The samples were processed as above and analyzed by UPLC‐Qtof-MS.
The stability of pro-EGCG in plasma with formic acid was assessed by mixing 6 µL of formic acid with 5.0 μg/mL pro-EGCG in 50 µL plasma and stored in an ice bath. Each three plasma samples were spiked with 5.0 μg/mL pro-EGCG internal standard and snap-frozen by liquid nitrogen at time points 0, 10, 15, 20, 30, 45, and 60 min. The samples were analyzed as described. Stability (%)=calculated concentration of pro−EGCG under different treatment /actual spiked concentration×100%

[3] = Stability of pro-EGCG in processed plasma extracts on storage; type: physicochemical; details: 5.0 μg/mL pro-EGCG of processed samples stored at 4°C for 7 days and 4 weeks at -20°C
Description: Three processed plasma samples extracted at 5.0 μg/mL were stored at 4°C for a week. They were tested at t = 0 and 7 days. This duration was selected to ensure the test period is sufficient to cover a batch of samples for analysis in the auto-sampler ([Brodie and Hill, 2002]; [Department of Medical Sciences Ministry of Public Health, 2022]). […] This test period covered common the maximum storage period pending for batches of analysis.

[4] = system: proteasome activity of breast cancer cells, MDA-MB231; design: method as in Landis-Piwowar et al., 2007; details: animal models, relative to EGCG, ref Landis-Piwowar et al., 2007; cited from earlier work
induced prostate cancer = system: induced prostate cancer; design: method as in Lee et al., 2008; details: nude mice with induced prostate cancer; relative to EGCG; ref Lee et al., 2008; cited from earlier work
induced skin tumors = system: induced skin tumors; design: method as in Chiou et al., 2013; details: mice with induced skin tumors; ref Chiou et al., 2013; cited from earlier work
[5] = system: human lung cancer H460 cells; design: method as in Heyza et al., 2018; details: compared with EGCG treatment, ref Heyza et al., 2018; cited from earlier work
[6] = system: plasma vascular endothelial growth factor (VEGF); design: method as in Wang et al., 2013; details: mouse model with induced endometriotic lesions; ref Wang et al., 2013; cited from earlier work
[7] = design: method as in Lambert et al., 2006; details: intragastric administration, CF-1 mice; ref Lambert et al., 2006; cited from earlier work
[8] = female, Sprague-Dawley, rat, plasma, po, 50 mg/kg, proposed metabolite in rat plasma after intragastric 50 mg/kg pro-EGCG, no standards, not confirmed, read-out: Tmax of pro-EGCG metabolite
[9] = female, Sprague-Dawley, rat, po, SD rats (n = 3), plasma, within 24 h after intragastric 50 mg/kg pro-EGCG, Mean ± SE

## CC(=O)Oc1cc([C@H]2Oc3cc(O)cc(O)c3C[C@H]2OC(=O)c2cc(O)c(O)c(O)c2)cc(O)c1OC(C)=O [EGCG-2Ac, (-)-epigallocatechin-gallate (EGCG) diacetates]
[1]; [8]
  Tmax: ~1 h

## CC(=O)Oc1cc([C@H]2Oc3cc(O)cc(O)c3C[C@H]2OC(=O)c2cc(O)c(O)c(O)c2)cc(OC(C)=O)c1OC(C)=O [EGCG-3Ac, EGCG triacetates]
[1]; [8]
  Tmax: ~5 h
[1]; rat plasma profile after intragastric 50 mg/kg pro-EGCG, peak ratio to internal standard
  degradation of EGCG-3Ac (production rate of EGCG-2Ac): about 1.25 × 10^−5 EGCG-3Ac/IS/hr

## CC(=O)Oc1cc(OC(C)=O)c2c(c1)O[C@H](c1cc(OC(C)=O)c(OC(C)=O)c(OC(C)=O)c1)[C@H](OC(=O)c1cc(OC(C)=O)c(OC(C)=O)c(OC(C)=O)c1)C2 [pro-EGCG, (-)-Epigallocatechin-gallate octaacetate]
[1]; female, Sprague-Dawley, oral, 50 mg/kg, non-compartmental analysis, rat plasma (n = 3) over 24 h
  Cmax: 67 ± 0.04 ng/mL
[1]; female, Sprague-Dawley, rat, plasma, po, 50 mg/kg, SD rats (n = 3), plasma, within 24 h after intragastric 50 mg/kg pro-EGCG, Mean ± SE, read-out: Tmax
  Tmax: 1.33 ± 0.33 h
[1]; female, Sprague-Dawley, rat, plasma, po, 50 mg/kg, oral administration, SD rats, 50 mg/kg pro-EGCG, read-out: time-of-maximum-concentration (Tmax)
  Tmax: 1.33 h
[1]; female, Sprague-Dawley, rat, plasma, oral administration, SD rats, 50 mg/kg pro-EGCG, read-out: area-under-curve (AUC)
  AUC: 200 ± 50 ng·h/mL
[1]; [9]
  Cmax: 67 ± 40 ng/mL
  MRT: 12.9 ± 6.4 h
[1]; female, Sprague-Dawley, rat, po, SD rats (n = 3), plasma, within 24 h after intragastric 50 mg/kg pro-EGCG, Mean ± SE, read-out: Lambda Z (converted)
  k el: 5.56e-05 s⁻¹
[1]; oral administration, SD rats, 50 mg/kg pro-EGCG
  elimination-rate: 0.20 ± 0.11 h⁻¹
[2]
  stability of pro-EGCG in plasma at room temperature: rapidly degraded
[2]; listed as Pro-EGCG
  stability of pro-EGCG in plasma at room temperature: unstable
[2]; formic acid treated plasma (6 µL in 50 µL), 5.0 μg/mL, 10 min in an ice bath, Mean ± SD, n = 3
  pro-EGCG remaining: 103 ± 3.6%
[2]; other esterase inhibitors treated plasma (TLCK, BNPP, dichlorvos, pefabloc 30 mM; NaF-KO), 5.0 μg/mL, 10 min in an ice bath
  pro-EGCG left: less than 22%
[3]
  Pro-EGCG remained: above 95%
[4]
  potency in inhibiting proteasome activity compared to the equivalent amount of EGCG: more than two-fold
Induced prostate cancer
  tumor volume smaller after pro-EGCG treatment than EGCG treatment: 40.1%
Induced skin tumors
  average number of tumors per mouse: three folds lower
  tumor incidences: three folds lower
[5]
  half-maximal inhibitory concentration (IC50) of clonogenicity: slightly lower
[6]
  plasma VEGF concentration relative to the concentration treated by EGCG: two-thirds
[7]
  bioavailability of EGCG compared with EGCG administered at equimolar doses: higher
